# Measurements from US6410515B1, “Peptide, a method for its preparation and a pharmaceutical composition containing the peptide” (Immunotech Developments Inc., priority 1995, dated 2002).
# What was measured:
# [1] = tested on: caryocytes in femoral marrow; test: Reconstitution of caryocyte numbers in femoral marrow after 4 Gy; format: in vivo, mice
# Experimental: The reconstitution of caryocyte numbers and that of hemopoietic progenitors was studied in femoral marrow after irradiation in the dose of 4 Gy and the peptide injection. The test was performed in 12 groups of mice, 6 animals each, and lasted 14 days. Intraperitoneal injections of the peptide in a dose of 10 μg/kg were made 1 day and 2 days before the irradiation.
# [2] = tested on: hemopoietic progenitor cells (CFU-S); test: CFU-S content in bone marrow of mice irradiated with 4 Gy; format: in vivo; details: day 8, control 401 ± 48
# Experimental: The effect of H-A-D-Trp-Y, where A is D-Glu or D-iGlu and Y is OH or a substituted amide, on protection and reconstitution of the population of hemopoietic progenitor cells in cytopenias of different origin was studied.
# Ionising radiation was used to deplete bone marrow. Donor mice were irradiated at a dose of 4 Gy. For each of the two peptides, 10 μg/kg was injected intraperitoneally 1 hour, 1 day or 2 days before the irradiation (groups of 12 mice each). Bone marrow was taken from femoral bones 8 days after the irradiation. Eight days generally marks the beginning of an exponential reconstitution of both the total number of cells and the population of hemopoietic progenitors in the bone marrow, which were depleted as a result of irradiation.
# On the 8th day a sharp statistically significant increase was recorded in the hemopoietic progenitor cells count in the bone marrow of the mice irradiated in the dose of 4 Gy who had received the peptide 2 days before the irradiation.
# [3] = tested on: mixed lymphocyte culture (MLC); test: Mixed lymphocyte culture (MLC) proliferation; format: cell-based, mice; details: FIG. 1
# Experimental: The influence of the peptides of the invention on the proliferation of a mixed lymphocyte culture (MLC) was studied. The MLC experimental system is an in vitro analogue of the GVHD reaction.
# Donor spleen cells from C57B1 mice ([…]) were injected into recipient (CBA×C57B1) F1 mice. Bone marrow was removed from the recipient and cultured for 4 days. The cultured cells were separated into 3 test groups, one group was treated with iDD, one with the L-peptide H-Ile-Glu-Trp-OH and one was a control. Each test peptide was added in various concentrations. Each determination was done in triplicate. ^3H-thymidine was added to each culture for 16 hours and the index of the proliferation of the cells was calculated.
Substance,"Caryocyte count ([1]; 10 μg/kg IP 1 day before 4 Gy, 4 days after irradiation, 4 Gy alone 9,0 ± 0,3)","Caryocyte count ([1]; 10 μg/kg IP 1 day before 4 Gy, 7 days after irradiation, 4 Gy alone 10,6 ± 0,8)","Caryocyte count ([1]; 10 μg/kg IP 1 day before 4 Gy, 11 days after irradiation, 4 Gy alone 17,0 ± 0,6)","Caryocyte count ([1]; 10 μg/kg IP 1 day before 4 Gy, 14 days after irradiation, 4 Gy alone 17,0 ± 1,2)","Caryocyte count ([1]; 10 μg/kg IP 2 days before 4 Gy, 4 days after irradiation, 4 Gy alone 9,0 ± 0,3)","Caryocyte count ([1]; 10 μg/kg IP 2 days before 4 Gy, 7 days after irradiation, 4 Gy alone 10,6 ± 0,8)","Caryocyte count ([1]; 10 μg/kg IP 2 days before 4 Gy, 11 days after irradiation, 4 Gy alone 17,0 ± 0,6)","Caryocyte count ([1]; 10 μg/kg IP 2 days before 4 Gy, 14 days after irradiation, 4 Gy alone 17,0 ± 1,2)",CFU-S count per femur ([2]; 10 μg/kg IP 1 hour before 4 Gy),CFU-S count per femur ([2]; 10 μg/kg IP 1 day before 4 Gy),CFU-S count per femur ([2]; 10 μg/kg IP 2 days before 4 Gy),Effect on proliferation of the allogenic lymphocytes (MLC) ([3]; 0.1 μg/ml),"Effect on proliferation of the allogenic lymphocytes (MLC) ([3]; concentrations 1, 10, 20 μg/ml)"
H-D-Glu-D-Trp-OH,"8,0 ± 0,7 × 10^6","16,4 ± 0,7 × 10^6","16,0 ± 1,3 × 10^6","15,0 ± 0,6 × 10^6","8,5 ± 0,5 × 10^6","20,0 ± 0,7 × 10^6","23,0 ± 1,9 × 10^6","24,5 ± 0,9 × 10^6",450 ± 95,780 ± 92,955 ± 93,–,–
H-Ile-Glu-Trp-OH [reference compound],–,–,–,–,–,–,–,–,–,–,–,negligible inhibition,stimulates the proliferation
